Here are results for 17 compounds from patent US20220282217A1, “COMPOSITIONS AND METHODS FOR PREPARING T CELL COMPOSITIONS AND USES THEREOF” (priority 2019, published 2022).

The target of one experiment is HLA-B07.02 (Homo sapiens, UniProt P01889). Description: Class I MHC peptide binding affinity (displacement of radiolabeled reference peptide). To be noted: for IC50: Allele B07.02, read-out: Observed Affinity (IC50, (nM)).
The target in experiment [1] is HLA-A02.01 (Homo sapiens, UniProt P04439, D140Y/D185E/D98H/E176V/E277Q/G131W/G231S/I119V/I121R/I166T/I218V/L300P/L318F/N151K/N90K/P208A/P217A/Q86G/Q94H/R138H/R169H/T345S). The description is as above. To be noted: for IC50: allele A02.01, read-out: Observed Affinity (IC50, (nM)). The gist of the method: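 Displacement format in which varying amounts of peptide compete for 2 days with a radiolabeled reference ligand prebound to class I MHC, residual complex-associated label being measured after gel-filtration separation.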

For experiment [2], the target named is T1, HLA-A02.01 (Homo sapiens, UniProt P04439, D140Y/D185E/D98H/E176V/E277Q/G131W/G231S/I119V/I121R/I166T/I218V/N151K/N90K/P208A/P217A/Q86G/Q94H/R138H/R169H).
T1 construct: made in house; host or cells: E. coli
Put plainly: Class I MHC peptide binding stability (pMHC-I dissociation, 125I-labeled light chain). To be noted: for Stability (T1/2 (h)): allele A02.01.

Another experiment addresses HLA-A24.02. Put plainly: Class I MHC peptide binding affinity (displacement of radiolabeled reference peptide). Set-up: species or system human. To be noted: allele A24.02; read-out: Observed Affinity (IC50; (nM)).

pIC50, pKd: −log10 of the molar value. Where two headings read alike, the source gives them in different places. Where a SMILES comes first, the peptide text is derived from it.

As a reminder, the IC50 is the concentration needed to halve the response being measured. Regarding `CC(C)C[C@H](NC(=O)[C@@H]1CCCN1C(=O)[C@@H]1CCCN1C(=O)[C@@H](NC(=O)[C@@H](NC(=O)[C@H](Cc1c[nH]c2ccccc12)NC(=O)[C@H](CC(C)C)NC(=O)[C@@H](NC(=O)[C@@H]1CCCN1C(=O)[C@@H](N)CCC(N)=O)C(C)C)[C@@H](C)O)[C@@H](C)O)C(=O)O` (H-QPVLWTTPPL-OH; N-terminus and C-terminus assumed), at HLA-B07.02, the IC50 stood at 109 nM.
On to `CC(C)[C@H](NC(=O)[C@H](C)NC(=O)[C@@H]1CCCN1C(=O)[C@@H](NC(=O)[C@H](CCCNC(=N)N)NC(=O)[C@H](C)NC(=O)[C@@H]1CCCN1C(=O)[C@@H]1CCCN1C(=O)CN)C(C)C)C(=O)O` (H-GPPARVPAV-OH; N-terminus and C-terminus assumed), for which the pIC50 at HLA-B07.02 is 6.66.
As for `C[C@H](NC(=O)[C@H](C)NC(=O)[C@H](CCCNC(=N)N)NC(=O)[C@@H]1CCCN1C(=O)[C@@H]1CCCN1C(=O)[C@H](CCCNC(=N)N)NC(=O)[C@@H]1CCCN1C(=O)[C@@H]1CCCN1)C(=O)N[C@@H](CS)C(=O)O` (H-PPRPPRAAC-OH; N-terminus and C-terminus assumed), at HLA-B07.02, the IC50 came out at 32.8 nM.
On the same count and under the same terms, to `CC(C)C[C@H](NC(=O)[C@H](CCC(N)=O)NC(=O)[C@H](CC(C)C)NC(=O)[C@H](Cc1c[nH]cn1)NC(=O)[C@H](CC(N)=O)NC(=O)[C@H](CCC(N)=O)NC(=O)[C@H](CCCNC(=N)N)NC(=O)[C@H](CO)NC(=O)[C@@H](N)CCCCN)C(=O)O` (H-KSRQNHLQL-OH; N-terminus and C-terminus assumed) belongs 78 nM; to `CC(C)C[C@H](NC(=O)[C@H](CC(=O)O)NC(=O)[C@H](Cc1ccccc1)NC(=O)[C@@H]1CCCN1C(=O)[C@@H](NC(=O)[C@H](C)NC(=O)[C@@H]1CCCN1C(=O)[C@@H](N)C(C)C)C(C)C)C(=O)N[C@@H](Cc1c[nH]cn1)C(=O)N[C@@H](Cc1ccccc1)C(=O)O` (H-VPAVPFDLHF-OH; N-terminus and C-terminus assumed), 2110 nM.
As for `CSCC[C@H](NC(=O)[C@H](CCC(=O)O)NC(=O)[C@H](CCCNC(=N)N)NC(=O)[C@H](CC(C)C)NC(=O)[C@H](Cc1ccc(O)cc1)NC(=O)[C@H](CC(N)=O)NC(=O)[C@H](CC(C)C)NC(=O)[C@H](CC(C)C)NC(=O)[C@@H](N)CO)C(=O)O`, the pIC50 at HLA-A02.01 [1] (BTK C481S peptide, HLA Allele A02.01, read-out: Affinity) was 7.17; on HLA-B07.02 (BTK C481S peptide, HLA Allele B07.02, read-out: Affinity), 6.06. Further, the IC50 at HLA-A02.01 [1] was determined as 87 nM. For the same compound, on HLA-A02.01 [2] (BTK C481S peptide, HLA Allele A02.01), the “Stability (half-life (hr.))” value was found to be 182.6 min. The “Stability (T1/2 (h))” value on HLA-A02.01 [2] stood at 3 h.
With `CC(C)C[C@H](NC(=O)CNC(=O)[C@H](CO)NC(=O)[C@H](CC(=O)O)NC(=O)[C@H](CCCCN)NC(=O)[C@H](CO)NC(=O)[C@H](Cc1ccc(O)cc1)NC(=O)[C@H](C)NC(=O)[C@@H]1CCCN1C(=O)[C@@H](N)Cc1ccc(O)cc1)C(=O)O` (H-YPAYSKDSGL-OH; N-terminus and C-terminus assumed), on HLA-B07.02, the IC50 was 79.5 nM.
For `CC[C@H](C)[C@H](NC(=O)[C@H](CC(N)=O)NC(=O)[C@@H](NC(=O)[C@H](CC(=O)O)NC(=O)[C@H](CCCCN)NC(=O)[C@@H]1CCCN1C(=O)[C@@H](N)CCSC)C(C)C)C(=O)N[C@@H](CCC(N)=O)C(=O)N[C@H](C(=O)O)C(C)C`, the IC50 on HLA-B07.02 is 12.5 nM.
Consider `CSCC[C@H](NC(=O)[C@H](CCC(=O)O)NC(=O)[C@H](CC(C)C)NC(=O)[C@H](CC(C)C)NC(=O)[C@H](CC(C)C)NC(=O)CNC(=O)[C@H](Cc1ccc(O)cc1)NC(=O)[C@H](CC(C)C)NC(=O)[C@@H]1CCCN1C(=O)[C@@H](N)C(C)C)C(=O)O` (H-VPLYGLLLEM-OH; N-terminus and C-terminus assumed), for which the IC50 on HLA-B07.02 amounted to 27.9 nM.
For the compound `CC(C)C[C@H](NC(=O)[C@H](CC(C)C)NC(=O)[C@H](Cc1c[nH]cn1)NC(=O)CNC(=O)[C@H](CCC(N)=O)NC(=O)[C@H](CC(N)=O)NC(=O)[C@H](CCC(N)=O)NC(=O)[C@@H](NC(=O)[C@@H](N)CCCNC(=N)N)C(C)C)C(=O)O` (H-RVQNQGHLL-OH; N-terminus and C-terminus assumed), at HLA-B07.02, the IC50 was found to be 826 nM.
`C[C@H](NC(=O)[C@H](C)NC(=O)[C@H](CCCNC(=N)N)NC(=O)[C@@H]1CCCN1C(=O)[C@@H]1CCCN1C(=O)[C@H](CCCNC(=N)N)NC(=O)[C@@H]1CCCN1C(=O)[C@@H]1CCCN1C(=O)CN)C(=O)N[C@@H](CS)C(=O)O` (H-GPPRPPRAAC-OH; N-terminus and C-terminus assumed): the IC50 on HLA-B07.02 turned out to be 48.6 nM.
Take `CC[C@H](C)[C@H](NC(=O)[C@H](CO)NC(=O)[C@H](Cc1c[nH]c2ccccc12)NC(=O)[C@H](Cc1c[nH]cn1)NC(=O)[C@H](C)NC(=O)[C@@H]1CCCN1C(=O)[C@H](CCSC)NC(=O)[C@H](CC(C)C)NC(=O)[C@H](CO)NC(=O)[C@@H](N)CC(C)C)C(=O)O`: the IC50 was 164 nM on HLA-A02.01 [1] and 12400 nM on HLA-A24.02. Besides, at HLA-A02.01 [2], the “Stability (T1/2 (h))” value was 0.4 h.
For `CC[C@H](C)[C@H](NC(=O)[C@H](CC(=O)O)NC(=O)[C@H](Cc1ccccc1)NC(=O)[C@H](CC(C)C)NC(=O)[C@@H](NC(=O)[C@H](CCC(=O)O)NC(=O)[C@@H](NC(=O)[C@H](CCSC)NC(=O)[C@@H](N)Cc1c[nH]c2ccccc12)[C@@H](C)O)[C@@H](C)O)C(=O)O` (H-WMTETLFDI-OH; N-terminus and C-terminus assumed) the same measures were 14 nM, 713 nM and 4 h.
Consider `CC(C)C[C@H](NC(=O)[C@@H]1CCCN1C(=O)[C@@H](N)CCCNC(=N)N)C(=O)N[C@@H](CCC(N)=O)C(=O)N[C@H](C(=O)N[C@@H](Cc1c[nH]cn1)C(=O)N[C@H](C(=O)N[C@@H](CC(C)C)C(=O)N1CCC[C@H]1C(=O)N[C@@H](CCC(=O)O)C(=O)O)C(C)C)[C@@H](C)O` (H-RPLQTHVLPE-OH; N-terminus and C-terminus assumed), for which, on HLA-B07.02, the IC50 stood at 2530 nM.
With `CC[C@H](C)[C@H](NC(=O)[C@@H](NC(=O)[C@@H](NC(=O)[C@H](CC(C)C)NC(=O)[C@@H](NC(=O)[C@@H]1CCCN1C(=O)[C@H](CCCNC(=N)N)NC(=O)[C@H](Cc1c[nH]c2ccccc12)NC(=O)[C@H](CC(N)=O)NC(=O)[C@@H](N)CCSC)[C@@H](C)CC)[C@@H](C)O)[C@@H](C)CC)C(=O)O` (H-MNWRPILTII-OH; N-terminus and C-terminus assumed), the values for the IC50 on HLA-A02.01 [1] and on HLA-A24.02 were 1030 nM and 44900 nM, respectively. For the same compound, the “Stability (T1/2 (h))” value on HLA-A02.01 [2] amounted to 0.4 h.
As to `CSCC[C@H](NC(=O)[C@H](CC(C)C)NC(=O)[C@H](CCC(N)=O)NC(=O)[C@@H](N)CCSC)C(=O)N1CCC[C@H]1C(=O)N[C@@H](Cc1ccccc1)C(=O)NCC(=O)N[C@@H](CS)C(=O)N[C@@H](CC(C)C)C(=O)N[C@@H](CC(C)C)C(=O)O`, the pKd at HLA-A02.01 [1] (EGFR T790M peptides, HLA allele A02.01, read-out: Affinity) was 7.79. The IC50 at HLA-A02.01 [1] worked out at 20 nM; at HLA-A24.02, 23600 nM. Also, the “Stability (half-life (hr.))” value on HLA-A02.01 [2] (EGFR T790M peptides, HLA allele A02.01) was 22.87 min. Moreover, on HLA-A02.01 [2], the “Stability (T1/2 (h))” value is listed as 0.4 h.
Regarding `CC(C)C[C@H](NC(=O)[C@H](C)NC(=O)[C@H](CC(C)C)NC(=O)[C@H](Cc1c[nH]cn1)NC(=O)[C@@H]1CCCN1C(=O)[C@H](CCC(=O)O)NC(=O)[C@@H]1CCCN1C(=O)[C@H](CC(C)C)NC(=O)[C@@H](NC(=O)[C@@H](N)Cc1c[nH]cn1)C(C)C)C(=O)O` [HVLPEPHLAL] (H-HVLPEPHLAL-OH; N-terminus and C-terminus assumed), on HLA-B07.02, the IC50 is 1330 nM.
